From US20070248672A1, “Indole and Azaindole Derivatives with Antitumor Action” (priority 2004, published 2007) come the findings set out here.

Data set [1] concerns HT29/Mit human colon carcinoma xenografts. The data set is described as follows: HT29/Mit human colon carcinoma xenograft, antitumor activity. The format is in vivo, athymic Swiss nude mice. The source says:
1.1 Model of HT29/Mit human colon carcinoma xenografts-Antitumor activity Female athymic Swiss nude mice (8-10 weeks old) (Charles River, Calco, Italy) were used for the experiments. The animals were maintained at constant temperature and humidity, and were allowed to eat and drink freely. The experimental protocol was approved by the Ethics Committee for Animal Experimentation of the Istituto Nazionale Tumori of Milan. The antitumour effectiveness of the compounds of the invention under discussion was tested on athymic mouse models implanted with HT29 and/or HT29/Mit tumour cells: this latter variety is highly resistant to topotecan treatment. The tumour cells were implanted in vivo via subcutaneous injection of 10^7 cells taken from in vitro cultures. Randomized groups of five mice with bilateral subcutaneous tumours were used for the experiment. Topotecan or other known antitumour agents (dissolved in distilled water or an appropriate solvent) and the compounds of the invention (dissolved in Cremophor EL: ethanol: saline solution in the proportions 5:5:90, or in an appropriate solvent) were administered orally from the third day, alone or in combination, in agreement with a treatment scheme selected in an appropriate manner depending on the type of compound to be studied. The weight (or volume) of the tumour in treated mice compared to controls is represented graphically on the y-axis against time (x-axis).
Background: A xenograft is tissue or cells of one species grown in another, often human tumour cells in immunodeficient mice.

The subject of another data set is HT29/Mit cells. The data set is described as follows: Co-treatment with topotecan, HT29/Mit resistant cells (Combination Index according to Kern). It counts as cell-based, human. Conditions: HT29/Mit; compound at non-toxic concentrations 0.01-0.1 μM. Here is the method:
(§1) The cells (HT29 and HT29/Mit: 40,000 cells/ml, LoVo, LoVo/Dx and HCT116: 50,000 cells/ml) are seeded in 100 μl of the respective culture media in 96-well plates. 24 hours after seeding, an aliquot (10 μl) of drug at the various concentrations is added. In the samples in which the effect of the combination of two compounds is to be tested the inhibitor is added immediately before the cytotoxic. For each dose or combination of doses/drugs the effect of the treatment is determined in 4-8 replicates.
After 72 hours of treatment the antiproliferative effect is evaluated using the sulforhodamine B (SRB) assay: the cells are fixed by adding 25 μl of 50% TCA to each well and left for 1 hour at 4° C. After washing them with water and allowing them to dry, 100 μl of 0.4% SRB in 1% acetic acid are added and left for 30 minutes at room temperature. After 4 washes in 1% acetic acid, they are left to dry then the dye fixed by the proteins is dissolved under basic conditions with 100 μl 10 mM cold Tris and the solution is read using a spectrophotometer at 550 nm.
Percentage cell growth is calculated as the optical density of treated samples compared to the optical density of controls (untreated cells).
(§2) The Combination Index (C.I.) was determined according to Kern's method, 1988 (who continued from Drewinko B, 1976) (Kem D. H., Cancer Res. 48, 117-121, 1988; Drewinko B., Cancer Biochem. Biophys. 1, 187-195, 1976) by means of the following formula: […], where SFa and SFb are the fractions of cells surviving to treatment with compound a and b, respectively; SFab is the fraction surviving to the combination of compounds a and b. If the result is =1, the interaction between the two compounds is additive; if it is >1, the interaction between the two compounds is synergistic; if it is <1, the interaction between the two compounds is antagonistic.

Data set [2] addresses Vacuolar ATPase in bovine chromaffin cells membranes (BCG) (Bos taurus, UniProt P23956+Q29466). The data set is described as follows: Vacuolar ATPase inhibition in bovine chromaffin cells membranes (BCG). It counts as biochemical. Conditions: read-out: ATPase activity (IC50) BCG; bovine chromaffin cell membranes. The protocol: Inhibition of bafilomycin sensitive ATPase activity is assayed by measuring the release of inorganic phosphate during 30 minutes of incubation, at 37° C., of the human osteoclastoma microsomal fraction in 96-well plates. The reaction medium contains 1 mM ATP, 10 mM Hepes-Tris buffer pH 8, 50 mM KCl, 5 μM valinomycin, 5 μM nigericin, 1 mM CDTA-Tris, 100 μM ammonium molybdate, 0.2 M sucrose and the microsomal fraction (20 μg protein/ml). The reaction is initiated by adding MgSO4 and terminated, after 30 minutes, by adding 4 volumes of the reagent malachite green, prepared according to Chan K., Anal. Biochem. 157, 375-380, 1986.
1.2 Determination of Vacuolar ATpase Inhibition in the Bovine Chromaffin Cells Membranes (BCG)
About 20 adrenal glands (Cidon S., J. Biol. Chem. 258, 2892-2898, 1983) are removed from healthy bovines; the medulla is quickly separated from the cortex, which is discarded. The medulla is homogenised at 4° C. with a suitable medium at pH 7.5, then filtered. The remaining solid material is further homogenised, filtered and recombined with the preceding filtrate, resuspended and centrifuged at 1000 g for 15 minutes; the supernatant obtained is centrifuged at 10000 g for 20 minutes. The resultant pellet is resuspended and stratified through a sucrose gradient formed of a lower part of 15 ml 1.5 M sucrose and an upper part of 10 ml 1.2 M sucrose. After overnight centrifugation at 4° C. with a SW28 rotor at 20000 rpm, the chromaffiln cells sediment into a pellet. This latter is resuspended, centrifuged at 3000 g for 10 minutes, and the supernatant obtained is centrifuged at 200000 g for 60 minutes. The pellet is then resuspended in 4 ml of a suitable medium containing 0.2 μg/ml pepstatin A and 0.4 μg/ml leupeptin and stored under liquid nitrogen.
The method for ATPase inhibition assay is the same as that followed for the osteoclastoma.

For a further data set, the system named is HepG2 cells. The data set is described as follows: Antiproliferative activity, 48 h treatment, ATPlite luminescence assay, HepG2. It counts as cell-based, human. To be noted: Homo sapiens; HepG2, 48 h treatment; read-out: Antiproliferative activity (IC50 ± S.D.) HepG2 48 h treatment. The protocol: HepG2: maintained in EMEM medium+10% FCS.
2.3 Scheme of the Antiproliferative Activity Experiment (Treatment Time: 48 Hours)
The cells (concentration: 30,000 cells/ml) are seeded in 90 μl of the respective culture media in 96-well plates. 24 hours after seeding, an aliquot (10 μl) of the drug at the various concentrations is added (for each concentration there are 3 replicates). After 48 hours of treatment the antiproliferative effect is evaluated with a luminescence assay (Perkin Elmer Life Sciences ATPlite):
50 μl of a lysis solution are added to each well followed by an equal volume of a solution containing luciferase and D-luciferin. The ATP present in all the metabolically active cells brings about the transformation reaction of D-luciferin, catalysed by luciferase, to produce a luminescent signal as described in the following scheme: ATP+D-luciferin+O2→Oxyluciferin+AMP+PP1+CO2+Light
The luminescence produced (expressed in counts per second, CPS) is measured by means of a microplate scintillation analyzer (Perkin Elmer Life Sciences Top Count).
Percentage inhibition of luminescence in the treated cells compared to the control is calculated; concentration-response curves are then analysed using Grafit v.5.0.
(ATP-based viability assays read luminescence as a measure of living cells.)

A further data set concerns tumour cells. The data set is described as follows: Antiproliferative effect on tumour cells, combined treatment with known antitumour agents. It counts as cell-based. To be noted: with topotecan, SN38, taxol, doxorubicin and anthracyclines. The protocol:
as §1, §2

Entries after “also recorded” stand apart in the source; their conditions may differ.

Vacuolar ATPase in bovine chromaffin cells membranes (BCG), sequence (P23956 whole entry, looked up): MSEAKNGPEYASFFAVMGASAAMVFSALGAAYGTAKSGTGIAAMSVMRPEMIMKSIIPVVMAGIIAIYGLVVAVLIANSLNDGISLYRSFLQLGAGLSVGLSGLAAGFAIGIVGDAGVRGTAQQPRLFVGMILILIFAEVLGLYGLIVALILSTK
Vacuolar ATPase in bovine chromaffin cells membranes (BCG), sequence (Q29466 whole entry, looked up): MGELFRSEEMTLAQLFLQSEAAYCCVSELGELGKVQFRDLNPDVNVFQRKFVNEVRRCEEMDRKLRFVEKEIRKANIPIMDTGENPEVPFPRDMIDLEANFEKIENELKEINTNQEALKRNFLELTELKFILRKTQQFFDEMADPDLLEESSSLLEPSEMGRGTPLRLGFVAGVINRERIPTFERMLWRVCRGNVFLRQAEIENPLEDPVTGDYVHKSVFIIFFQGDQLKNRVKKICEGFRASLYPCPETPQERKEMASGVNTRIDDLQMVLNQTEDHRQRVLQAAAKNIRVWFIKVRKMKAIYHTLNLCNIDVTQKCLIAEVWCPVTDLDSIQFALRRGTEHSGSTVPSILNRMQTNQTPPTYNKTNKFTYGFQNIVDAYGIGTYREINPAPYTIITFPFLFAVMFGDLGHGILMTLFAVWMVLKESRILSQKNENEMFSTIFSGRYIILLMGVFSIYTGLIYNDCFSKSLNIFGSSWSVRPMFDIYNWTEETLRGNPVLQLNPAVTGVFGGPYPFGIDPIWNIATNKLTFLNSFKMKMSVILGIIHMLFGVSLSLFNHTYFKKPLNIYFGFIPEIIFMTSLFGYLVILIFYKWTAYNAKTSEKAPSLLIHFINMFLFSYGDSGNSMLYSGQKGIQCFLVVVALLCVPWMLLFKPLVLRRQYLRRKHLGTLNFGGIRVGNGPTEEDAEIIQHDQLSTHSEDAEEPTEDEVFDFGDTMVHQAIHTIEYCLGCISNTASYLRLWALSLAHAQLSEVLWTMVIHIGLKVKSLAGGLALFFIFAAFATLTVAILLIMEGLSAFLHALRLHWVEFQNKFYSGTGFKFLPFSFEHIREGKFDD

Take `COC(=O)c1[nH]c2cc(OC)c(OC)cc2c1-c1ccc(OC)cc1` [Example 1, 5,6-Dimethoxy-3-(4-methoxy-phenyl)-1H-indole-2-carboxylic acid methyl ester]: the “antitumoral efficacy of combined administration with topotecan” value in data set [1] (30 mg/kg p.o. with topotecan 1 or 2 mg/kg p.o., statistically significant with 1 mg topotecan) is “increased antitumoral efficacy”. In addition, the tumor growth inhibition in data set [1] (administered alone, 30 mg/kg p.o., after 7 days of treatment, statistically significant) was 43%. Besides, the “effect of co-treatment with topotecan” value in the data set on HT29/Mit cells is “synergism; also recorded: clear synergistic effect”. The IC50 (in general, the concentration at which inhibition is half-maximal) in data set [2] was 0.644 µM; with HepG2 cells, 24.4 ± 7.9 µM. Further, in the data set with tumour cells, the “effect in combination with cytotoxic agents” value is reported as “marked synergistic effects”.
